#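 GI50 is the concentration that inhibits growth by half. TGI: concentration producing complete growth inhibition.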 Residues, ends and D or L forms follow the SMILES beside them. *: point of attachment. Cbz = O=C(OCc1ccccc1)*
# How the values were obtained:
# Test in all cases: inhibition of tumour cell growth, NCI panel, 384-well format
# A498 renal = test system: A498 renal
# A549 NSCLC = test system: A549 NSCLC
# BT-549 breast = test system: BT-549 breast
# CAKI-1 renal = test system: CAKI-1 renal
# CCRF-CEM leukemia = test system: CCRF-CEM leukemia
# COLO 205 colon = test system: COLO 205 colon
# DU-145 prostate = test system: DU-145 prostate
# EKVX NSCLC = test system: EKVX NSCLC
# HCC-2998 colon = test system: HCC-2998 colon
# HCT-116 colon = test system: HCT-116 colon
# HOP-62 NSCLC = test system: HOP-62 NSCLC
# HT29 colon = test system: HT29 colon
# IGROV1 ovarian = test system: IGROV1 ovarian
# K-562 leukemia = test system: K-562 leukemia
# KM12 colon = test system: KM12 colon
# LOX IMVI melanoma = test system: LOX IMVI melanoma
# M14 melanoma = test system: M14 melanoma
# MALME-3M melanoma = test system: MALME-3M melanoma
# MCF7 breast = test system: MCF7 breast
# MDA-MB-231 breast = test system: MDA-MB-231 breast
# MDA-MB-435 melanoma = test system: MDA-MB-435 melanoma
# MDA-MB-468 breast = test system: MDA-MB-468 breast
# NCI-H226 lung = test system: NCI-H226 lung
# NCI-H23 lung = test system: NCI-H23 lung
# NCI-H322M lung = test system: NCI-H322M lung
# NCI-H460 NSCLC = test system: NCI-H460 NSCLC
# NCI-H522 lung = test system: NCI-H522 lung
# NCI/ADR-RES ovarian = test system: NCI/ADR-RES ovarian
# OVCAR-4 ovarian = test system: OVCAR-4 ovarian
# OVCAR-5 ovarian = test system: OVCAR-5 ovarian
# PC-3 prostate = test system: PC-3 prostate
# RXF 393 renal = test system: RXF 393 renal
# SF-268 CNS = test system: SF-268 CNS
# SF-539 CNS = test system: SF-539 CNS
# SK-MEL-2 melanoma = test system: SK-MEL-2 melanoma
# SK-OV-3 ovarian = test system: SK-OV-3 ovarian
# SN12C renal = test system: SN12C renal
# SNB-19 CNS = test system: SNB-19 CNS
# SNB-75 CNS = test system: SNB-75 CNS
# SR leukemia = test system: SR leukemia
# SW-620 colon = test system: SW-620 colon
# T-47D breast = test system: T-47D breast
# TK-10 renal = test system: TK-10 renal
# U251 glioblastoma = test system: U251 glioblastoma
# UACC-257 melanoma = test system: UACC-257 melanoma
# UACC-62 melanoma = test system: UACC-62 melanoma
# UO-31 renal = test system: UO-31 renal
compound,measurement,setting,value
CC(C)C[C@@H](C=O)NC(=O)[C@H](CC(C)C)NC(=O)[C@H](CC(C)C)NC(=O)OCc1ccccc1 (Cbz-Leu-Leu-Leu-aldehyde),GI50,A498 renal,0.263 µM
same,TGI,A498 renal,796 nM
same,GI50,A549 NSCLC,427 nM
same,TGI,A549 NSCLC,1690 nM
same,GI50,BT-549 breast,0.164 µM
same,TGI,BT-549 breast,305 nM
same,GI50,CAKI-1 renal,228 nM
same,TGI,CAKI-1 renal,676 nM
same,GI50,CCRF-CEM leukemia,0.114 µM
same,TGI,CCRF-CEM leukemia,0.239 µM
same,GI50,COLO 205 colon,0.258 µM
same,TGI,COLO 205 colon,0.714 µM
same,GI50,DU-145 prostate,212 nM
same,TGI,DU-145 prostate,506 nM
same,GI50,EKVX NSCLC,222 nM
same,TGI,EKVX NSCLC,534 nM
same,GI50,HCC-2998 colon,0.179 µM
same,TGI,HCC-2998 colon,327 nM
same,GI50,HCT-116 colon,0.146 µM
same,TGI,HCT-116 colon,296 nM
same,GI50,HOP-62 NSCLC,180 nM
same,TGI,HOP-62 NSCLC,339 nM
same,GI50,HT29 colon,178 nM
same,TGI,HT29 colon,335 nM
same,GI50,IGROV1 ovarian,0.184 µM
same,TGI,IGROV1 ovarian,358 nM
same,GI50,K-562 leukemia,0.176 µM
same,TGI,K-562 leukemia,0.334 µM
same,GI50,KM12 colon,0.178 µM
same,TGI,KM12 colon,326 nM
same,GI50,LOX IMVI melanoma,0.158 µM
same,TGI,LOX IMVI melanoma,298 nM
same,GI50,M14 melanoma,179 nM
same,TGI,M14 melanoma,324 nM
same,GI50,MALME-3M melanoma,155 nM
same,TGI,MALME-3M melanoma,291 nM
same,GI50,MCF7 breast,0.0991 µM
same,TGI,MCF7 breast,603 nM
same,GI50,MDA-MB-231 breast,177 nM
same,TGI,MDA-MB-231 breast,326 nM
same,GI50,MDA-MB-435 melanoma,176 nM
same,TGI,MDA-MB-435 melanoma,321 nM
same,GI50,MDA-MB-468 breast,0.126 µM
same,TGI,MDA-MB-468 breast,0.253 µM
same,GI50,NCI-H226 lung,0.188 µM
same,TGI,NCI-H226 lung,372 nM
same,GI50,NCI-H23 lung,0.163 µM
same,TGI,NCI-H23 lung,310 nM
same,GI50,NCI-H322M lung,361 nM
same,TGI,NCI-H322M lung,1290 nM
same,GI50,NCI-H460 NSCLC,0.2 µM
same,TGI,NCI-H460 NSCLC,380 nM
same,GI50,NCI-H522 lung,0.0858 µM
same,TGI,NCI-H522 lung,225 nM
same,GI50,NCI/ADR-RES ovarian,1.57 µM
same,TGI,NCI/ADR-RES ovarian,3.06 µM
same,GI50,OVCAR-4 ovarian,174 nM
same,TGI,OVCAR-4 ovarian,324 nM
same,GI50,OVCAR-5 ovarian,213 nM
same,TGI,OVCAR-5 ovarian,440 nM
same,GI50,PC-3 prostate,0.177 µM
same,TGI,PC-3 prostate,325 nM
same,GI50,RXF 393 renal,0.149 µM
same,TGI,RXF 393 renal,0.283 µM
same,GI50,SF-268 CNS,166 nM
same,TGI,SF-268 CNS,313 nM
same,GI50,SF-539 CNS,167 nM
same,TGI,SF-539 CNS,307 nM
same,GI50,SK-MEL-2 melanoma,0.134 µM
same,TGI,SK-MEL-2 melanoma,0.268 µM
same,GI50,SK-OV-3 ovarian,220 nM
same,TGI,SK-OV-3 ovarian,538 nM
same,GI50,SN12C renal,177 nM
same,TGI,SN12C renal,355 nM
same,GI50,SNB-19 CNS,161 nM
same,TGI,SNB-19 CNS,340 nM
same,GI50,SNB-75 CNS,185 nM
same,TGI,SNB-75 CNS,351 nM
same,GI50,SR leukemia,0.0247 µM
same,TGI,SR leukemia,0.098 µM
same,GI50,SW-620 colon,0.138 µM
same,TGI,SW-620 colon,275 nM
same,GI50,T-47D breast,0.169 µM
same,TGI,T-47D breast,319 nM
same,GI50,TK-10 renal,0.195 µM
same,TGI,TK-10 renal,417 nM
same,GI50,U251 glioblastoma,0.211 µM
same,TGI,U251 glioblastoma,407 nM
same,GI50,UACC-257 melanoma,131 nM
same,TGI,UACC-257 melanoma,263 nM
same,GI50,UACC-62 melanoma,0.168 µM
same,TGI,UACC-62 melanoma,0.312 µM
same,GI50,UO-31 renal,0.179 µM
same,TGI,UO-31 renal,324 nM
Cc1[nH]nc2ncc(C(=O)N3CCC[C@H]3c3ccc(Cl)cc3)cc12,GI50,A498 renal,39 µM
same,TGI,A498 renal,> 100000 nM
same,GI50,A549 NSCLC,> 100000 nM
same,TGI,A549 NSCLC,> 100000 nM
same,GI50,BT-549 breast,57.7 µM
same,TGI,BT-549 breast,> 100000 nM
same,GI50,CAKI-1 renal,> 100000 nM
same,TGI,CAKI-1 renal,> 100000 nM
same,GI50,CCRF-CEM leukemia,15.6 µM
same,TGI,CCRF-CEM leukemia,30.6 µM
same,GI50,COLO 205 colon,33.6 µM
same,TGI,COLO 205 colon,83.4 µM
same,GI50,DU-145 prostate,> 100000 nM
same,TGI,DU-145 prostate,> 100000 nM
same,GI50,EKVX NSCLC,> 100000 nM
same,TGI,EKVX NSCLC,> 100000 nM
same,GI50,HCC-2998 colon,32.3 µM
same,TGI,HCC-2998 colon,> 100000 nM
same,GI50,HCT-116 colon,37.2 µM
same,TGI,HCT-116 colon,> 100000 nM
same,GI50,HOP-62 NSCLC,> 54900 nM
same,TGI,HOP-62 NSCLC,> 100000 nM
same,GI50,HT29 colon,> 100000 nM
same,TGI,HT29 colon,> 100000 nM
same,GI50,IGROV1 ovarian,44.7 µM
same,TGI,IGROV1 ovarian,> 100000 nM
same,GI50,K-562 leukemia,20.9 µM
same,TGI,K-562 leukemia,44.1 µM
same,GI50,KM12 colon,31.5 µM
same,TGI,KM12 colon,> 85100 nM
same,GI50,LOX IMVI melanoma,60.6 µM
same,TGI,LOX IMVI melanoma,> 100000 nM
same,GI50,M14 melanoma,> 100000 nM
same,TGI,M14 melanoma,> 100000 nM
same,GI50,MALME-3M melanoma,> 100000 nM
same,TGI,MALME-3M melanoma,> 100000 nM
same,GI50,MCF7 breast,31.8 µM
same,TGI,MCF7 breast,> 100000 nM
same,GI50,MDA-MB-231 breast,> 100000 nM
same,TGI,MDA-MB-231 breast,> 100000 nM
same,GI50,MDA-MB-435 melanoma,> 100000 nM
same,TGI,MDA-MB-435 melanoma,> 100000 nM
same,GI50,MDA-MB-468 breast,21.2 µM
same,TGI,MDA-MB-468 breast,68.5 µM
same,GI50,NCI-H226 lung,39.1 µM
same,TGI,NCI-H226 lung,> 100000 nM
same,GI50,NCI-H23 lung,36.6 µM
same,TGI,NCI-H23 lung,> 100000 nM
same,GI50,NCI-H322M lung,> 100000 nM
same,TGI,NCI-H322M lung,> 100000 nM
same,GI50,NCI-H460 NSCLC,60.4 µM
same,TGI,NCI-H460 NSCLC,> 100000 nM
same,GI50,NCI-H522 lung,21.3 µM
same,TGI,NCI-H522 lung,> 100000 nM
same,GI50,NCI/ADR-RES ovarian,30.8 µM
same,TGI,NCI/ADR-RES ovarian,> 100 µM
same,GI50,OVCAR-4 ovarian,> 100000 nM
same,TGI,OVCAR-4 ovarian,> 100000 nM
same,GI50,OVCAR-5 ovarian,> 100000 nM
same,TGI,OVCAR-5 ovarian,> 100000 nM
same,GI50,PC-3 prostate,48.9 µM
same,TGI,PC-3 prostate,> 100000 nM
same,GI50,RXF 393 renal,19.7 µM
same,TGI,RXF 393 renal,46.7 µM
same,GI50,SF-268 CNS,> 100000 nM
same,TGI,SF-268 CNS,> 100000 nM
same,GI50,SF-539 CNS,> 91400 nM
same,TGI,SF-539 CNS,> 100000 nM
same,GI50,SK-MEL-2 melanoma,25.3 µM
same,TGI,SK-MEL-2 melanoma,77.5 µM
same,GI50,SK-OV-3 ovarian,> 100000 nM
same,TGI,SK-OV-3 ovarian,> 100000 nM
same,GI50,SN12C renal,> 100000 nM
same,TGI,SN12C renal,> 100000 nM
same,GI50,SNB-19 CNS,> 100000 nM
same,TGI,SNB-19 CNS,> 100000 nM
same,GI50,SNB-75 CNS,> 78100 nM
same,TGI,SNB-75 CNS,> 100000 nM
same,GI50,SR leukemia,11.7 µM
same,TGI,SR leukemia,25 µM
same,GI50,SW-620 colon,30.9 µM
same,TGI,SW-620 colon,> 79600 nM
same,GI50,T-47D breast,68.2 µM
same,TGI,T-47D breast,> 100000 nM
same,GI50,TK-10 renal,80.6 µM
same,TGI,TK-10 renal,> 100000 nM
same,GI50,U251 glioblastoma,51.7 µM
same,TGI,U251 glioblastoma,> 100000 nM
same,GI50,UACC-257 melanoma,> 100000 nM
same,TGI,UACC-257 melanoma,> 100000 nM
same,GI50,UACC-62 melanoma,23.4 µM
same,TGI,UACC-62 melanoma,48.6 µM
same,GI50,UO-31 renal,46.6 µM
same,TGI,UO-31 renal,> 100000 nM
